Measurements as given in US20060035925A1, “SUBSTITUTED 4H-CHROMENES AND ANALOGS AS ACTIVATORS OF CASPASES AND INDUCERS OF APOPTOSIS AND THE USE THEREOF” (Cytovia, Inc., priority 1999, published 2006).
Like-named read-outs stand apart in the source and are kept apart here.

How the values were obtained:
[1] = test system: Human breast cancer cell line ZR-75-1; assay: Caspase cascade activation assay (N-(Ac-DEVD)-N'-ethoxycarbonyl-R110 fluorogenic substrate) in ZR-75-1 cells; assay type: cell-based; conditions: ZR-75-1 cells; for EC50: 24 h incubation, sigmoidal dose-response, read-out: Caspase potency EC50 (nM) ZR-75-1; for Caspase activity (Ratio) ZR-75-1: 24 h incubation with compound, ratio of net RFU (T=3 h) of test compound to control
Description: (§1) Human breast cancer cell lines T-47D and ZR-75-1 were grown according to media component mixtures designated by American Type Culture Collection +10% FCS (Invitrogen Corporation), in a 5% CO2-95% humidity incubator at 37° C. T-47D and ZR-75-1 cells were maintained at a cell density between 30 and 80% confluency at a cell density of 0.1 to 0.6×10^6 cells/ml. Cells were harvested at 600×g and resuspended at 0.65×10^6 cells/mL into appropriate media +10% FCS. An aliquot of 45 μl of cells was added to a well of a 96-well microtiter plate containing 5 μl of a 10% DMSO in RPMI-1640 media solution containing 0.16 to 10 μM of 2-amino-3-cyano-4-(3-bromo-4,5-dimethoxyphenyl)-4H-indolo[7,6-b]pyran (Example 42) or other test compound (0.016 to 1 μM final). An aliquot of 45 μl of cells was added to a well of a 96-well microtiter plate containing 5 μl of a 10% DMSO in RPMI-1640 media solution without test compound as the control sample. The samples were mixed by agitation and then incubated at 37° C. for 24 h in a 5% CO2-95% humidity incubator. After incubation, the samples were removed from the incubator and 50 μl of a solution containing 20 μM of N-(Ac-DEVD)-N′-ethoxycarbonyl-R110 (SEQ ID NO:1) fluorogenic substrate (Cytovia, Inc.; WO99/18856), 20% sucrose (Sigma), 20 mM DTT (Sigma), 200 mM NaCl (Sigma), 40 mM Na PIPES buffer pH 7.2 (Sigma), and 500 μg/ml lysolecithin (Calbiochem) was added. The samples were mixed by agitation and incubated at room temperature. Using a fluorescent plate reader (Model 1420 Wallac Instruments), an initial reading (T=0) was made approximately 1-2 min after addition of the substrate solution, employing excitation at 485 nm and emission at 530 nm, to determine the background fluorescence of the control sample. After the 3 h incubation, the samples were read for fluorescence as above (T=3 h).
(§2) The Relative Fluorescence Unit values (RFU) were used to calculate the sample readings as follows: RFU(T=3h)−Control RFU(T=0)=Net RFU(T=3h)
(§3) The activity of caspase cascade activation was determined by the ratio of the net RFU value for 2-amino-3-cyano-4-(3-bromo-4,5-dimethoxyphenyl)-4H-indolo[7,6-b]pyran or other test compound to that of control samples. The EC50 (nM) was determined by a sigmoidal dose-response calculation (Prism 2.0, GraphPad Software Inc.).

[2] = test system: Human breast cancer cell line T-47D; assay: Caspase cascade activation assay (N-(Ac-DEVD)-N'-ethoxycarbonyl-R110 fluorogenic substrate) in T-47D cells; assay type: cell-based; conditions: for Caspase activity (Ratio) T-47D: 24 h incubation with compound, ratio of net RFU (T=3 h) of test compound to control; for EC50: 24 h incubation, sigmoidal dose-response, read-out: Caspase potency EC50 (nM) T-47D
Description: as §1, §2, §3

Row | Molecule | EC50 ([1]; Homo sapiens, ZR-75-1, 24 h) | EC50 ([2]; Homo sapiens, T47D, 24 h) | EC50 [1] | EC50 [2] | Caspase activity (Ratio) ZR-75-1 [1] | Caspase activity (Ratio) T-47D [2]
1 | N#CC1=C(N)OC2C(=CC=C3C=CN=C32)C1c1cncc(C#N)c1 (stereo not shown) [Example 60, 2-Amino-3-cyano-4-(5-cyano-pyridin-3-yl)-4H-indolo[7,6-b]pyran] | 57 nM | 388 nM | – | – | 5.5 | 6.7
2 | COc1cccc(C2C(C#N)=C(N)Oc3cc(N)ccc32)c1 (stereo not shown) [Example 21, 2,7-Diamino-3-cyano-4-(3-methoxyphenyl)-4H-chromene] | 562 nM | 697 nM | – | – | 9.2 | 6.0
3 | COc1cc(C2C(C#N)=C(N)Oc3cc(N4CCNCC4)ccc32)cc(Br)c1OC (stereo not shown) [Example 66B, 2-Amino-3-cyano-7-piperazine-4-(3-bromo-4,5-dimethoxyphenyl)-4H-chromene] | – | – | 1470 nM | 2910 nM | 6.8 | 5.7
4 | COc1cc(C2C(C#N)=C(N)Oc3cc(-n4cccc4)ccc32)cc(Br)c1OC (stereo not shown) [Example 67, 2-Amino-3-cyano-7-pyrrole-4-(3-bromo-4,5-dimethoxyphenyl)-4H-chromene] | – | – | 148 nM | 349 nM | 6.9 | 9.2
5 | N#CC1=C(N)Oc2cc(N)ccc2C1c1cccc(Br)c1 (stereo not shown) [Example 19, 2,7-Diamino-3-cyano-4-(3-bromophenyl)-4H-chromene] | 206 nM | 274 nM | – | – | 9.2 | 5.9
6 | N#CC1=C(N)Oc2cc(N)ccc2C1c1cccnc1 (stereo not shown) [Example 24, 2,7-Diamino-3-cyano-4-(3-pyridyl)-4H-chromene] | > 10000 nM | > 10000 nM | – | – | <2 | <2
7 | N#CC1=C(N)OC2C3=CC=NC3=CC=C2C1c1cnc2ccccc2n1 (stereo not shown) [Example 59, 2-Amino-3-cyano-4-(quinoxalin-2-yl)-4H-indolo[4,5-b]pyran] | > 10000 nM | > 10000 nM | – | – | 1.2 | 1.1
8 | COc1cc(C2C(C#N)=C(N)Oc3c2ccc2[nH]c(C)nc32)cc(Br)c1OC (stereo not shown) [Example 65, 2-Amino-3-cyano-4-(3-bromo-4,5-dimethoxy-phenyl)-8-methyl-4H-imidazo[4,5-h]-chromene] | – | – | 570 nM | > 1000 nM | 6.0 | 1.5
9 | COc1cc(C2C(C#N)=C(N)Oc3c2ccc2[nH]c(=O)[nH]c32)cc(Br)c1OC (stereo not shown) [Example 80, 2-Amino-3-cyano-4-(3-bromo-4,5-dimethoxy-phenyl)-8-oxo-4,7,8,9-tetrahydroimidazo[4,5-h]chromene] | – | – | 21.5 nM | 50.5 nM | 7.5 | 8.8
10 | COc1ccc2c(c1)OC(N)=C(C#N)C2c1cccc(C#N)c1 (stereo not shown) [Example 5, 2-Amino-3-cyano-7-methoxy-4-(3-cyanophenyl)-4H-chromene] | 46 nM | 37 nM | – | – | 7.1 | 6.9
11 | N#CC1=C(N)Oc2ccccc2C1c1ccccc1 (stereo not shown) [Example 29, 2-Amino-3-cyano-4-phenyl-4-H-chromene] | – | – | > 10000 nM | > 10000 nM | <2 | <2
12 | COc1ccc2c(c1)OC(N)=C(C#N)C2c1cccc(F)c1 (stereo not shown) [Example 2N, 2-Amino-3-cyano-7-methoxy-4-(3-fluorophenyl)-4H-chromene] | 47 nM | 57 nM | – | – | 6.8 | 4.2
13 | N#CC1=C(N)Oc2cc(N)ccc2C1c1cccc([N+](=O)[O-])c1 (stereo not shown) [Example 25, 2,7-Diamino-3-cyano-4-(3-nitrophenyl)-4H-chromene] | 325 nM | 463 nM | – | – | 9.7 | 6.1
14 | 2-Amino-3-ethoxycarboxyl-4-(3-bromo-4,5-dimethoxy-phenyl)-4H-indolo[4,5-b]pyran [Example 72] | – | – | 567 nM | > 1000 nM | 3.6 | 1.2
15 | N#CC1=C(N)OC2C3=CC=NC3=CC=C2C1c1ccccc1 (stereo not shown) [Example 56, 2-Amino-3-cyano-4-phenyl-4H-indolo[4,5-b]pyran] | 157 nM | 252 nM | – | – | 7.7 | 8.3
16 | CCNc1ccc2c(c1)OC(N)=C(C#N)C2c1cccc([N+](=O)[O-])c1 (stereo not shown) [Example 9, 2-Amino-3-cyano-7-ethylamino-4-(3-nitrophenyl)-4H-chromene] | 50 nM | 116 nM | – | – | 12.8 | 7.6

Second part, led by results:

Row | EC50 ([1]; Homo sapiens, ZR-75-1, 24 h) | EC50 ([2]; Homo sapiens, T47D, 24 h) | EC50 [1] | EC50 [2] | Molecule | Caspase activity (Ratio) ZR-75-1 [1] | Caspase activity (Ratio) T-47D [2]
17 | 21 nM | 34 nM | – | – | COc1ccc2c(c1)OC(N)=C(C#N)C2c1cc(F)cc(F)c1 (stereo not shown) [Example 2J, 2-Amino-3-cyano-7-methoxy-4-(3,5-difluorophenyl)-4H-chromene] | 7.4 | 5.0
18 | 35.9 nM | 67.7 nM | – | – | COc1cc(C2C(C#N)=C(N)Oc3cc(N)ccc32)cc(Br)c1O (stereo not shown) [Example 49, 3-Cyano-4-(3-bromo-4-hydroxy-5-methoxyphenyl)-2,7-diamino-4H-chromene] | 5.8 | 10.1
19 | 14 nM | 25 nM | – | – | CCNc1ccc2c(c1)OC(N)=C(C#N)C2c1cc(OC)c(OC)c(OC)c1 (stereo not shown) [Example 13, 2-Amino-3-cyano-7-ethylamino-4-(3,4,5-trimethoxyphenyl)-4H-chromene] | 7.0 | 4.4
20 | 14 nM | 24 nM | – | – | COc1ccc2c(c1)OC(N)=C(C#N)C2c1cncc(C)c1 (stereo not shown) [Example 30, 2-Amino-3-cyano-7-methoxy-4-(5-methyl-3-pyridyl)-4H-chromene] | 13.2 | 7.5
21 | 16.9 nM | 27.4 nM | – | – | COc1cncc(C2C(C#N)=C(N)Oc3cc(OC)ccc32)c1 (stereo not shown) [Example 40, 2-Amino-3-cyano-7-methoxy-4-(5-methoxy-pyridin-3-yl)-4H-chromene] | 8.9 | 7.9
22 | 26 nM | 62 nM | 26.3 nM | 61.8 nM | COc1cccc(C2C3=CC=C4N=CC=C4C3OC(N)=C2C#N)c1 (stereo not shown) [Example 46, 2-Amino-3-cyano-4-(3-methoxyphenyl)-4H-indolo[4,5-b]pyran] | 7.1 | 6.4
23 | 26.4 nM | 79.7 nM | – | – | N#CC1=C(N)OC2C(=CC=C3C=CN=C32)C1c1cccc(C#N)c1 (stereo not shown) [Example 53, 2-Amino-3-cyano-4-(3-cyano-phenyl)-4H-indolo[7,6-b]pyran] | 7.0 | 10.1
24 | 6 nM | 11 nM | – | – | CCNc1ccc2c(c1)OC(N)=C(C#N)C2c1cccc(C#N)c1 (stereo not shown) [Example 16, 2-Amino-3-cyano-7-ethylamino-4-(3-cyanophenyl)-4H-chromene] | 6.7 | 7
25 | 25 nM | 30 nM | – | – | COc1cc(C2C3=CC=C4C=CN=C4C3OC(N)=C2C#N)cc(Br)c1OC (stereo not shown) [Example 42, 2-Amino-3-cyano-4-(3-bromo-4,5-dimethoxyphenyl)-4H-indolo[7,6-b]pyran] | 13.1 | 7.6
26 | 36 nM | 48 nM | – | – | COc1ccc2c(c1)OC(N)=C(C#N)C2c1cccc(Cl)c1 (stereo not shown) [Example 10, 2-Amino-3-cyano-7-methoxy-4-(3-chlorophenyl)-4H-chromene] | 9.0 | 6.1
